Read-outs that look alike come from different tables or passages of the source.
Tests used:
[1] = Microsomal stability, rat; type: in vitro ADME
Procedure: (§1) Microsomal and plasma stability of Compound A was investigated. The following table indicates the percent of Compound A remaining after 60 minutes.
(§2) Microsomal and plasma stability of Compound B was investigated. The following table indicates the percent of Compound B remaining after 60 minutes.

Plasma stability, human = type: in vitro ADME
Procedure: as §1, §2

NMDAR2A = NMDAR2A (Homo sapiens, UniProt Q12879); experiment: Potentiation of [3H]MK-801 binding, NMDAR2A; set-up: species or system rat; details: for Conclusion / % 1 mM Glycine: NMDAR2A binding profile; for % 1 mM Glycine: relative to 1 mM glycine; for potentiation of [3H]MK-801 binding, subtype preference in words: NR2A, FIG. 2 / FIG. 6
NMDAR2A, sequence (Q12879 23-1464, species assumed, other chains not shown): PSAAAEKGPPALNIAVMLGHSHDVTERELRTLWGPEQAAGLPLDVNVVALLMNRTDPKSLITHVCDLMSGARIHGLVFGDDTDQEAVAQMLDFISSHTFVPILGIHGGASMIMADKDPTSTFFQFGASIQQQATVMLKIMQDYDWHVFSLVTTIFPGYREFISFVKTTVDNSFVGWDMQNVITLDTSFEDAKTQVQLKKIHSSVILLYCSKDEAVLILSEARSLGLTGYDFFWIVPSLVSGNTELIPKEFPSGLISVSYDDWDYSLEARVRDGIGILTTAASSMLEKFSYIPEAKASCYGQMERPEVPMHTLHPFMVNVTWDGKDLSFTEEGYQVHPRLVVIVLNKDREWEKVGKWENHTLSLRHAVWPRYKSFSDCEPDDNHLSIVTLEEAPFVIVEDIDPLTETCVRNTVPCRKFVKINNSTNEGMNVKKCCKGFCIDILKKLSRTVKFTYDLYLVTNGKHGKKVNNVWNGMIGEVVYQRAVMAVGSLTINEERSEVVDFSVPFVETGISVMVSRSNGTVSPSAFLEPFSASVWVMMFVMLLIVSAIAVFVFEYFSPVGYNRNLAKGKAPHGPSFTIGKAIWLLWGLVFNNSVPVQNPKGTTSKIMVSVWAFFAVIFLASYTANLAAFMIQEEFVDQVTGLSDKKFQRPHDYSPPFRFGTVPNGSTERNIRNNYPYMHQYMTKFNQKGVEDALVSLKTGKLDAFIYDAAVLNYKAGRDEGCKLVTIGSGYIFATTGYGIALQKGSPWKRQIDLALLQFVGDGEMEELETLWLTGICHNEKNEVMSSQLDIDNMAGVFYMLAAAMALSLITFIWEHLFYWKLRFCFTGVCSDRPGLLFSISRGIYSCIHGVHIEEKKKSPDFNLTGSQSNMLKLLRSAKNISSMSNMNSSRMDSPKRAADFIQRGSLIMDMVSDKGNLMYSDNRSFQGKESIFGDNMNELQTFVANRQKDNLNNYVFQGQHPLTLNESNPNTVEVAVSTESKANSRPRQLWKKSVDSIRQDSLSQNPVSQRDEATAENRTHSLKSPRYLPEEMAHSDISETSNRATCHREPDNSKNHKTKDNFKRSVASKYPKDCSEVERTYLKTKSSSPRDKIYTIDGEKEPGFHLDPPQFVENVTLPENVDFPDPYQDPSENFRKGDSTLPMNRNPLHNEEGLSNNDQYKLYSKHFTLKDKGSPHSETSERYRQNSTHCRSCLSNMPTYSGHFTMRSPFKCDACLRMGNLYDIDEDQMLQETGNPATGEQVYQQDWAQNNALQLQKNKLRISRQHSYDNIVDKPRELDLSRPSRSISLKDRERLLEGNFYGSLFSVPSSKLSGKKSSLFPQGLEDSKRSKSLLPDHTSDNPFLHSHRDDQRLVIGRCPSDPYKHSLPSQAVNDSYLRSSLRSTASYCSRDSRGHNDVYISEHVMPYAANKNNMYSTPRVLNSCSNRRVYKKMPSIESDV
Procedure: Assays were conducted as described by Moskal et al., “GLYX-13: a monoclonal antibody-derived peptide that acts as an N-rnethyl-D-aspartate receptor modulator,” Neuropharmacology, 49, 1077-87, 2005. The potentiation of [^3H]MK-801 binding (5 nrM; 22.5 Ci/mmol) to well washed rat cortical membranes (200 μg) was measured under non-equilibrium conditions (15 min @ 25° C.) in the presence of increasing concentrations of Compound A.
Assays were conducted as described above in Example 5, by Moskal et al. (2005).

Sprague Dawley rats = experiment: Blast-induced traumatic brain injury/cognitive deficits measured by PEL; type: in vivo, rat; details: 10 mg/kg PO 1 h post-blast; PEL 48 hours post-blast
Excerpt: Single blast-induced traumatic brain injury/cognitive deficits were induced, modified for use in rats according to the protocol of Goldstein et al., “Chronic traumatic encephalopathy in blast-exposed military veterans and a blast neurotrauma mouse model,” Science Translational Medicine, Vol. 4, Issue 134, pp. 134ra60, 2012. Male 2-3 month old Sprague Dawley rats were used. Rats were housed in Lucite cages with aspen wood chip bedding, maintained on a 12:12 light:dark cycle (lights on at 5 AM), and given ad libitum access to Purina lab chow (USA) and tap water throughout the study. Rats were first anesthetized using 3.5-4% isoflurane, then the ears were protected with 1.5×1.5 mm foam plugs (Pura-Fit®, Moldex-Metric Inc., Culver City, Calif.), and the rat was placed into a head access rodent thoracic restrainer (Stoelting, USA) to protect the body while allowing the head to move freely. […]
PEL (Positive emotional learning) was conducted 48 hours post-blast. […] High frequency ultrasonic vocalizations (USVs) were recorded and analyzed by sonogram with Avasoft SASlab Pro (Germany) as previously described by Burgdorf et al., “Positive emotional learning is regulated in the medial prefrontal cortex by GluN2B-containing NMDA receptors,” Neuroscience, 192:515-523, 2011. Frequency raodulated 50-kH-z USVs that occurred during each the no-stimulation periods were quantified to measure PEL. […]

NMDAR2B = NMDAR2B (Homo sapiens, UniProt Q13224); experiment: Potentiation of [3H]MK-801 binding, NMDAR2B; set-up: species or system rat; details: for % 1 mM Glycine: relative to 1 mM glycine
NMDAR2B, sequence (Q13224 27-1484, species assumed, other chains not shown): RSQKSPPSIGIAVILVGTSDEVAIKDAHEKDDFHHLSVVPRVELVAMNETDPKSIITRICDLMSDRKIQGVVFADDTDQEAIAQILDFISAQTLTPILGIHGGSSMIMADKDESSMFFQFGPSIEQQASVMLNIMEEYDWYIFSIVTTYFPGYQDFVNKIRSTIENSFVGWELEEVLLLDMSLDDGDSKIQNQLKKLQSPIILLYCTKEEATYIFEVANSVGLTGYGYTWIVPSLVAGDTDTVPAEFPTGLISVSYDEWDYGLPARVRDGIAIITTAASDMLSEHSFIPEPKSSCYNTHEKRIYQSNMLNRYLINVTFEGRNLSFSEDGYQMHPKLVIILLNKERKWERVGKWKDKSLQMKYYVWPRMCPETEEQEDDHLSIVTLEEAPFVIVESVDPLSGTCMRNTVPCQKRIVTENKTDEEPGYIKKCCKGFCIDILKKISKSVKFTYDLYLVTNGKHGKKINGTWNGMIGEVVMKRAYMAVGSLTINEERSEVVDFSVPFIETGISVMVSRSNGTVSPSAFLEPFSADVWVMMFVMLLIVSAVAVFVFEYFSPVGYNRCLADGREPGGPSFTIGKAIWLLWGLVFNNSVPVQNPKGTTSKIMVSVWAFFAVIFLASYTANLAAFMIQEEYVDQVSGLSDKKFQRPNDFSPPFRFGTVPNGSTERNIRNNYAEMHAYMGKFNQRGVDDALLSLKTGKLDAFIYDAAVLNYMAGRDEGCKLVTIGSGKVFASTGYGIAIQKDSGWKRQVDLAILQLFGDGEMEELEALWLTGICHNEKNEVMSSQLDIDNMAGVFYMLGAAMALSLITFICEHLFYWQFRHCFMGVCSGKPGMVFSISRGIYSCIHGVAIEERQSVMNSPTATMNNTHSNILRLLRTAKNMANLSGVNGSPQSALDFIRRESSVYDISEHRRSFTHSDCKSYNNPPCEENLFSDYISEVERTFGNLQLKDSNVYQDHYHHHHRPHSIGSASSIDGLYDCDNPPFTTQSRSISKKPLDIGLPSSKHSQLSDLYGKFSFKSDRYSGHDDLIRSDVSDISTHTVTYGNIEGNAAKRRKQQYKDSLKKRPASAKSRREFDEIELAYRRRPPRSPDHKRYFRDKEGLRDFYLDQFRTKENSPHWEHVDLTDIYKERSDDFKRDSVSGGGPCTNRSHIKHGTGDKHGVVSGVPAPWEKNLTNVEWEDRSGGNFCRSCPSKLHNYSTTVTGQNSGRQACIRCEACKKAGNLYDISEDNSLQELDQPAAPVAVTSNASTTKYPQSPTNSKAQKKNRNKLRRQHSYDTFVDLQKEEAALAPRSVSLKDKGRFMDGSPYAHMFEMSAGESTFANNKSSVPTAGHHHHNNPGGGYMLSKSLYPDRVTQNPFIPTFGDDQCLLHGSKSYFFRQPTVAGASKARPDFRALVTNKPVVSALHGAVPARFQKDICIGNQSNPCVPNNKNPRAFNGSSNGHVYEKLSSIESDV

[2] = Bioavailability and CSF/brain/plasma distribution after PO dosing; type: in vivo, Sprague Dawley rats; details: for Kp / bioavailability: Sprague Dawley, rat, PO administration (Compound A 10 mg/kg); for bioavailability: plasma, read-out: Bioavailablity (% F); for oral bioavailability, in words / proportion able to get to the CSF and brain, in words: comparative statement, comparator not named
Procedure: The bioavailablity of Compound A was investigated following PO administration. CSF, brain and plasma samples were analyzed following dosing with compound A (10 mg/kg). The following table indicates the bioavailablity and CSF/plasma and brain/plasma ratios.
Sprague Dawley rats were dosed intravenously with 2 mg/kg of Compound A. A second group of Sprague Dawley rats was dosed per os with 10 mg/kg of compound A. Plasma samples were drawn over a 24 h period and analyzed for Compound A.
In another experiment, Sprague Dawley rats were dosed per os with 10 mg/kg of Compound A. Plasma, brain, and CSF samples were analyzed at various time points over a 24 hour period. […]

Plasma stability, rat = type: in vitro ADME
Procedure: as §1, §2

NMDAR2C = NMDAR2C (Homo sapiens, UniProt Q14957); experiment: Potentiation of [3H]MK-801 binding, NMDAR2C; set-up: species or system rat; details: for % 1 mM Glycine: relative to 1 mM glycine
NMDAR2C, sequence (Q14957 20-1233, species assumed, other chains not shown): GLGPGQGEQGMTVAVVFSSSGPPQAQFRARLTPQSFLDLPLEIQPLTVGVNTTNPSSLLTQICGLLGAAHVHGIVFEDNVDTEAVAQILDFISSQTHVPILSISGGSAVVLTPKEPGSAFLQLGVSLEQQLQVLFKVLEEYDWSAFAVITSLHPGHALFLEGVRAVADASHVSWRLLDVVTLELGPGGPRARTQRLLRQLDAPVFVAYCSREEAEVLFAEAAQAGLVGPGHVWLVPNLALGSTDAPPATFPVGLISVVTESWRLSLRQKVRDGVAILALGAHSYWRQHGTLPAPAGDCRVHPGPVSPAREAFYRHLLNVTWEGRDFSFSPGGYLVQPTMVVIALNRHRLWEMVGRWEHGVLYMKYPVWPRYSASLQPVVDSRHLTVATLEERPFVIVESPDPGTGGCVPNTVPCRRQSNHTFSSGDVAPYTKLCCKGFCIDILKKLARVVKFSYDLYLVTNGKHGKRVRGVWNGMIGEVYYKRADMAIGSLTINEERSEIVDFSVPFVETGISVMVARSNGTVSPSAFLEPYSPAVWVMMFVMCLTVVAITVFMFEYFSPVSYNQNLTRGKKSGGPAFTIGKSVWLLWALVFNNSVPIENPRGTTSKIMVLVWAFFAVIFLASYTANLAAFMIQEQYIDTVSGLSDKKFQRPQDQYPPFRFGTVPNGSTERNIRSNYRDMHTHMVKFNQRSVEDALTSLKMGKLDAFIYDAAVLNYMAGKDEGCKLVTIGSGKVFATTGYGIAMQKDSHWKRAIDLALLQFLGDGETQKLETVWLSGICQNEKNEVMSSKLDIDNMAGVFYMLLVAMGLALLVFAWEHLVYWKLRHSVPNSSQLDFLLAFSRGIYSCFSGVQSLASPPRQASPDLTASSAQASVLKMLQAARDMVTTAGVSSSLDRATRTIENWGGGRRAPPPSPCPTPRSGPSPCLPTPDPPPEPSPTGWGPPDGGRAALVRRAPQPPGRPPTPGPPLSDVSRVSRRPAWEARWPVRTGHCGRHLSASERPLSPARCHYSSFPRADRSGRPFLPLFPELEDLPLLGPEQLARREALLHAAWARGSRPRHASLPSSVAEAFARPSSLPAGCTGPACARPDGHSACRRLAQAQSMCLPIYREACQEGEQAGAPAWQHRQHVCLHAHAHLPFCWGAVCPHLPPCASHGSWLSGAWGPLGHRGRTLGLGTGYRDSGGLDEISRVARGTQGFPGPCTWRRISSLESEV

[3] = Plasma protein binding, rat; type: in vitro ADME; details: read-out: plasma protein binding (% bound) (converted)
Procedure: Unbound drug concentration in the brain was also investigated, and plasma protein binding assays were conducted. The following table (% bound) indicates results for Compound A.
Unbound drug concentration in the brain was also investigated, and plasma protein binding assays were conducted. The following table (% bound) indicates results for Compound B.

[4] = CSF/plasma, read-out: CSF/plasma ratio
[5] = brain/plasma, read-out: Brain/plasma ratio

Structure (SMILES) | Microsomal stability, percent remaining after 60 minutes [1] | Plasma stability, percent remaining after 60 minutes (Plasma stability, human) | Conclusion (NMDAR2A) | % 1 mM Glycine (NMDAR2A) | potentiation of [3H]MK-801 binding, subtype preference in words (NMDAR2A) | blast-induced cognitive deficits as measured by PEL (Sprague Dawley rats) | Conclusion (NMDAR2B; NMDAR2B binding profile) | % 1 mM Glycine (NMDAR2B; NMDAR2B binding profile) | Kp [2, 4] | Kp [2, 5] | bioavailability [2] | oral bioavailability, in words [2] | proportion able to get to the CSF and brain, in words [2] | Plasma stability, percent remaining after 60 minutes (Plasma stability, rat) | Conclusion (NMDAR2C; NMDAR2C binding profile) | % 1 mM Glycine (NMDAR2C; NMDAR2C binding profile) | fraction unbound [3] | further results
CC(C)CN1CCC[C@]12CN([C@H](C(N)=O)[C@@H](C)O)C2=O [Compound A, (2S,3R)-3-hydroxy-2-((R)-5-isobutyl-1-oxo-2,5-diazaspiro[3.4]octan-2-yl)butanamide] | 65% | 100% | WT2A agonist | 47.42% | highly NR2A preferring | reversed blast-induced cognitive deficits | WT2B agonist | 68.22% | 0.65 | 0.19 | 42% | lower oral bioavailability | a higher proportion is able to get to the CSF and brain | 92% | WT2C agonist | 66.21% | 0.701 | EC50 (NMDAR2B; NMDAR2B binding profile, wild-type): 3.09 nM; EC50 (NMDAR2C; NMDAR2C binding profile, wild-type): 1.51 nM
CC(C)CN1CCC[C@@]12CN([C@H](C(N)=O)[C@@H](C)O)C2=O [Compound B, (2S,3R)-3-hydroxy-2-((S)-5-isobutyl-1-oxo-2,5-diazaspiro[3.4]octan-2-yl)butanamide] | 81% | 100% | WT2A agonist | 24.48% | lower potency in NR2A and NR2C | reversed blast-induced cognitive deficits | WT2B agonist | 49.02% | 0.7 | 0.18 | 38% | lower oral bioavailability | a higher proportion is able to get to the CSF and brain | 89% | WT2C agonist | 85.37% | 0.802 | potentiation of [3H]MK-801 binding, subtype preference in words (NMDAR2B; NR2B, FIG. 6): highly NR2B and NR2D preferring; potentiation of [3H]MK-801 binding, subtype preference in words (NMDAR2C; NR2C, FIG. 6): lower potency in NR2A and NR2C

From US10196401B2, “Spiro-lactam NMDA receptor modulators and uses thereof” (Aptinyx Inc., priority 2016, dated 2019)
